We go through two compounds from patent publication US10604473B2, “Lipids that increase insulin sensitivity and methods of using the same” (Beth Israel Deaconess Medical Center, Inc., priority 2013, dated 2020).

Assay type in all cases: cell-based
The subject of assay [1] is STC-1 cells. The experiment in a line: Calcium flux (FURA2) in STC-1 cells. The conditions noted are these: 100 uM, no extracellular Ca2+. The method, then: For the experiments summarized in FIG. 39 the method is: Cells grown on collagen coated glass slides were preloaded with the calcium indicator, FURA2, for 60 minutes. Buffer containing either FAHFAs or vehicle was incubated with cells for a period of 3 minutes followed by washout with buffer alone. FURA2 fluorescence, an indicator of Calcium mobilization, was monitored continuously before and during the addition of compounds and throughout the washout period. Results were analyzed with metamorph software. Calcium Flux in STC-1 (intestinal enteroendocrine) cells in the absence of extracellular calcium (calcium free buffer). Ligands were injected after 3 minutes and washed out after an additional 3 minutes. The data presented is the average fold change in Fura2 fluorescence for 10 individual STC-1 cells in the same field.
DMSO control had no effect. Top panel is linoleic acid, a positive control. Middle panel 9-PAHSA (100 uM). Bottom panel 5-PAHSA (100 μM). These experiments were done in the absence of extracellular calcium.
For orientation: Calcium assays in cells follow changes in intracellular calcium, usually with a dye or a luminescent sensor.

The subject of the next assay is 3T3-L1 adipocytes. The experiment in a line: Glucose transport in 3T3-L1 adipocytes. How it is done:
FIGS. 54A-D show glucose uptake regulation by PAHSAs and Glut4 translocation via GPR120. FIG. 54A is a bar graph showing insulin-stimulated glucose transport in 3T3-L1 adipocytes treated 9-PAHSA (20 μM) or vehicle (DMSO) control for 6 days. n=6 per group, *p<0.05 compared to vehicle by t-test. FIG. 54B is a bar graph showing insulin (10 nM)-stimulated glucose transport in 3T3-L1 adipocytes transfected with control siRNA or GPR120 siRNA and treated 5-PAHSA (10 μM), 9-PAHSA (10 μM) or vehicle (DMSO) control for 2 days. n=3 per group, *p<0.05 compared to DMSO+control siRNA or GPR120 siRNA alone, $p<0.05 compared to control siRNA or GPR120 siRNA+insulin and GPR120 siRNA+insulin+PAHSA by t-test. FIG. 54C is a panel showing Glut4 plasma membrane translocation in 3T3-L1 adipocytes transfected with control siRNA or GPR120 siRNA and treated with 9-PAHSA in the presence or absence of insulin. 6 separate experiments were carried out without RNAi and 3 experiments with RNAi; each experiment had greater than 50 cells per experimental condition. FIG. 54D is a bar graph showing quantification of Glut4 translocation in panel C. *p<0.05 compared to control siRNA+insulin and GPR120 siRNA+insulin+9-PAHSA by t-test. All data are presented as mean±s.e.m. See also FIG. 57.
For all cell culture experiments, FAHFAs were solubilized in DMSO at a concentration of 20 mM and further diluted in assay buffer or cell culture media to the working concentrations indicated for each assay. In all instances an equivalent volume of vehicle (DMSO) was added to control treatment groups.

A further assay deals with T1, GPR120 (Homo sapiens, UniProt Q5NUL3).
T1 construct: beta-galactosidase enzyme fragment (ProLink)
T1 sequence (Q5NUL3 1-377 isoform Q5NUL3-1): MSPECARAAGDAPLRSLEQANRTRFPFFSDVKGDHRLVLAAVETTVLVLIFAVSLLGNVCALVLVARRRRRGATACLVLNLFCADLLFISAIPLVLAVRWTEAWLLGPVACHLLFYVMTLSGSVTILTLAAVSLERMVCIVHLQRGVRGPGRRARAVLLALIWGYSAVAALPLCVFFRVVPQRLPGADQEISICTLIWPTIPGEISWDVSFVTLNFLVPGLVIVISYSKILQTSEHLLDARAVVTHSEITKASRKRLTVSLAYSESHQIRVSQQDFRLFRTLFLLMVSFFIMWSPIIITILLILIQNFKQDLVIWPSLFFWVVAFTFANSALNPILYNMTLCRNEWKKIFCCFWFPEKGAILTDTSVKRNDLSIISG
Kind of assay: PathHunter beta-Arrestin GPCR assay. The text has this:
FIGS. 57A and 57B are graphs showing GPR120 activation by 9-PAHSA and GPR120 knockdown in 3T3-L1 adipocytes. Specifically, FIG. 57A depicts a GPR120 activity assay using the PathHunter® eXpress GPR120L β-Arrestin GPCR Assay (DiscoverX). n=3 wells per condition. FIG. 57B is a bar graph showing validation of GPR120 knockdown in differentiated 3T3-L1 adipocytes. 3T3-L1 adipocytes (Day 8 post differentiation) were transfected with non-targeting (control) siRNA or three individual GPR120 targeting siRNA's individually or in combination. 48 h post-transfection GPR120 mRNA levels were measured by qPCR and normalized to TBP mRNA levels. n=3 wells per condition.
For the experiments summarized in FIGS. 43-45, the fragment based GPCR assay from DiscoveRx (PATHHUNTER® β-Arrestin assay) was used to as per manufacturer's instructions to determine activation of specific GPCRs as indicated in FIGS. 43-45.

Assay [2] concerns STC-1 cells. The experiment in a line: GLP-1 secretion from STC-1 enteroendocrine cells (ELISA). The method, then:
For the experiments summarized in FIG. 41 STC-1 cells were incubated with vehicle (DMSO), 9-PAHSA, 5-PAHSA or 9-OAHSA at the indicated concentrations or lineolic acid (100 uM) as a positive control. Media was harvested and GLP-1 was measured by ELISA.
For the experiments summarized in FIG. 42, the same protocol as described for FIG. 41 was used, except in this experiment a time course was performed. For both FIG. 41 and FIG. 42, for GLP-1 secretion STC1 cells were washed 3× with serum free culture media followed by stimulation with FAHFAs or vehicle at the indicated concentrations and timepoints. Levels of active GLP-1 were measured by ELISA.

The subject of assay [3] is STC-1 cells. The experiment in a line: ERK phosphorylation in STC-1 cells (immunoblot). Conditions: 15 minutes stimulation. The method, then: For the experiments summarized in FIG. 40, STC-1 cells were incubated with 9-PAHSA, 5-PAHSA or 9-OAHSA at the indicated concentrations. Cells were harvested and lysed and proteins were separated by SDS PAGE and transferred onto nitrocellulose filters. The phosphorylation of ERK and the amount of total ERK was determined by immunoblotting with antibodies specific for total or phosphor-ERK. DMSO was the control. For ERK phosphorylation, cells were serum deprived overnight and stimulated with FAHFAs or vehicle as indicated for 15 minutes followed by lysis in RIPA buffer and analysis by SDS-PAGE
(In general: In western blotting, separated proteins are transferred to a membrane and probed.)

Entries after “also recorded” stand apart in the source; their conditions may differ.

For `CCCCCCCCCCCCCCCC(=O)OC(CCCCCCCCCCCCC)CCCC(=O)O` (centres unmarked) [5-PAHSA], the “Ca2+ flux from intracellular stores” value in the assay with STC-1 cells [1] is on record as “induce Ca2+ flux from intracellular stores”. The insulin-stimulated glucose transport entry with 3T3-L1 adipocytes is listed as “enhanced insulin-induced glucose transport”. Besides, the GPR120 activation result at GPR120 is “dose-dependently activated GPR120; also recorded: activate GPR120”. Moreover, in the assay on STC-1 cells [2], the GLP-1 secretion entry was “rapidly stimulated GLP-1 secretion; also recorded: induce GLP-1 secretion”. Also, the ERK phosphorylation entry in the assay on STC-1 cells [3] is listed as “induce ERK phosphorylation”.

On to `CCCCCCCCCCCCCCCC(=O)OC(CCCCCCCCC)CCCCCCCC(=O)O` (centres unmarked) [9-PAHSA, palmitoyl-9-hydroxystearic acid], for which, in the assay with STC-1 cells [1], the “Ca2+ flux from intracellular stores” value is “induce Ca2+ flux from intracellular stores”. Also, in the assay on 3T3-L1 adipocytes (basal state), the glucose transport result is “modestly increased glucose transport”. The GPR120 activation result at GPR120 is given as “dose-dependently activated GPR120; also recorded: is a ligand for the GPCR, GPR120; also recorded: activate GPR120”. Further, in the assay on STC-1 cells [2], the GLP-1 secretion result is reported as “rapidly stimulated GLP-1 secretion; also recorded: induce GLP-1 secretion”; the “time course for GLP-1 secretion” value was “very rapid and sustained”. In addition, the ERK phosphorylation entry in the assay with STC-1 cells [3] is reported as “induce ERK phosphorylation”.
